How the values were obtained:
Test in all cases: NCI 60 cell-line screen
Format in all cases: cell-based
HOP-92 = details: Homo sapiens, Lung, averaged, quadruplicate testing, read-out: negative log10 GI50 (converted)
Excerpt: (§1) It is the concentration where 100×(T−To)/To=−50=PG. […] Res., 34, 91-109 (1995).

OVCAR-5 = details: Homo sapiens, Ovary, averaged, quadruplicate testing, read-out: negative log10 GI50 (converted)
Excerpt: as §1

EKVX = details: Homo sapiens, Lung, averaged, quadruplicate testing, read-out: negative log10 GI50 (converted)
Excerpt: as §1

SK-MEL-28 = details: Homo sapiens, Melanoma, averaged, quadruplicate testing, read-out: negative log10 GI50 (converted)
Excerpt: as §1

K-562 = details: Homo sapiens, K562, Leukemia, averaged, quadruplicate testing, read-out: negative log10 GI50 (converted)
Excerpt: as §1

OVCAR-8 = details: Homo sapiens, Ovary, averaged, quadruplicate testing, read-out: negative log10 GI50 (converted)
Excerpt: as §1

SW-620 = details: Homo sapiens, Colon, averaged, quadruplicate testing, read-out: negative log10 GI50 (converted)
Excerpt: as §1

M14 = details: Homo sapiens, Melanoma, averaged, quadruplicate testing, read-out: negative log10 GI50 (converted)
Excerpt: as §1

SK-MEL-5 = details: Homo sapiens, Melanoma, averaged, quadruplicate testing, read-out: negative log10 GI50 (converted)
Excerpt: as §1

NCI-H322M = details: Homo sapiens, Lung, averaged, quadruplicate testing, read-out: negative log10 GI50 (converted)
Excerpt: as §1

T-47D = details: Homo sapiens, T47D, Breast, averaged, quadruplicate testing, read-out: negative log10 GI50 (converted)
Excerpt: as §1

MCF-7 = details: Homo sapiens, MCF7, Breast, averaged, quadruplicate testing, read-out: negative log10 GI50 (converted)
Excerpt: as §1

SF-268 = details: Homo sapiens, Brain, averaged, quadruplicate testing, read-out: negative log10 GI50 (converted)
Excerpt: as §1

SNB-75 = details: Homo sapiens, Brain, averaged, quadruplicate testing, read-out: negative log10 GI50 (converted)
Excerpt: as §1

SK-MEL-2 = details: Homo sapiens, Melanoma, averaged, quadruplicate testing, read-out: negative log10 GI50 (converted)
Excerpt: as §1

SN-12C = details: Homo sapiens, SN12C, Kidney, averaged, quadruplicate testing, read-out: negative log10 GI50 (converted)
Excerpt: as §1

IGROV1 = details: Homo sapiens, IGROV-1, Ovary, averaged, quadruplicate testing, read-out: negative log10 GI50 (converted)
Excerpt: as §1

OVCAR-3 = details: Homo sapiens, Ovary, averaged, quadruplicate testing, read-out: negative log10 GI50 (converted)
Excerpt: as §1

MOLT-4 = details: Homo sapiens, Leukemia, averaged, quadruplicate testing, read-out: negative log10 GI50 (converted)
Excerpt: as §1

NCI-H226 = details: Homo sapiens, Lung, averaged, quadruplicate testing, read-out: negative log10 GI50 (converted)
Excerpt: as §1

MDA-N = details: Homo sapiens, Breast, averaged, quadruplicate testing, read-out: negative log10 GI50 (converted)
Excerpt: as §1

CAKI-1 = details: Homo sapiens, Kidney, averaged, quadruplicate testing, read-out: negative log10 GI50 (converted)
Excerpt: as §1

HL-60-TB = details: Homo sapiens, HL-60, read-out: negative log10 GI50 (converted)
Excerpt: as §1

HT29 = details: Homo sapiens, HT-29, Colon, averaged, quadruplicate testing, read-out: negative log10 GI50 (converted)
Excerpt: as §1

HCT-15 = details: Homo sapiens, Colon, averaged, quadruplicate testing, read-out: negative log10 GI50 (converted)
Excerpt: as §1

KM12 = details: Homo sapiens, Colon, averaged, quadruplicate testing, read-out: negative log10 GI50 (converted)
Excerpt: as §1

SF-295 = details: Homo sapiens, Brain, averaged, quadruplicate testing, read-out: negative log10 GI50 (converted)
Excerpt: as §1

HOP-62 = details: Homo sapiens, Lung, averaged, quadruplicate testing, read-out: negative log10 GI50 (converted)
Excerpt: as §1

SNB-19 = details: Homo sapiens, Brain, averaged, quadruplicate testing, read-out: negative log10 GI50 (converted)
Excerpt: as §1

DU-145 = details: Homo sapiens, Prostate, averaged, quadruplicate testing, read-out: negative log10 GI50 (converted)
Excerpt: as §1

HCC-2998 = details: Homo sapiens, Colon, averaged, quadruplicate testing, read-out: negative log10 GI50 (converted)
Excerpt: as §1

CCRF-CEM = details: Homo sapiens, Leukemia, averaged, quadruplicate testing, read-out: negative log10 GI50 (converted)
Excerpt: as §1

Q: `CC/C=C\C=C/C(=O)N/C=C/CC1CC(O)C(C)C/C=C/Cc2cccc(O)c2C(=O)O1` (centres unmarked) [salicylihalamide A] was tested. Which GI50 (HOP-92) did it give?
A: The GI50 was 17 nM.

Q: And the GI50 (OVCAR-5)?
A: Its GI50 is 7.76 nM.

Q: What about the GI50 (EKVX) of the same molecule?
A: The GI50 was 30.2 nM.

Q: What about the GI50 (SK-MEL-28) of the same molecule?
A: The GI50 was 100 nM.

Q: And the GI50 (K-562)?
A: The GI50 was 3.89 nM.

Q: And the GI50 (OVCAR-8)?
A: The GI50 was 3.72 nM.

Q: And the GI50 (SW-620)?
A: The GI50 was 28.8 nM.

Q: What about the GI50 (M14) of the same molecule?
A: Its GI50 is 1.2 nM.

Q: And the GI50 (SK-MEL-5)?
A: The GI50 was 1 nM.

Q: What about the GI50 (NCI-H322M) of the same molecule?
A: Its GI50 is 191 nM.

Q: And the GI50 (T-47D)?
A: Its GI50 is 4.57 nM.

Q: And the GI50 (MCF-7)?
A: Its GI50 is 75.9 nM.

Q: And the GI50 (SF-268)?
A: The GI50 was 28.2 nM.

Q: What about the GI50 (SNB-75) of the same molecule?
A: The GI50 was 617 nM.

Q: And the GI50 (SK-MEL-2)?
A: Its GI50 is 33.9 nM.

Q: What about the GI50 (SN-12C) of the same molecule?
A: The GI50 was 17 nM.

Q: What about the GI50 (IGROV1) of the same molecule?
A: The GI50 was 12.9 nM.

Q: And the GI50 (OVCAR-3)?
A: The GI50 was 93.3 nM.

Q: What about the GI50 (MOLT-4) of the same molecule?
A: Its GI50 is 11 nM.

Q: And the GI50 (NCI-H226)?
A: The GI50 was 1.58 nM.

Q: And the GI50 (MDA-N)?
A: Its GI50 is 10 nM.

Q: What about the GI50 (CAKI-1) of the same molecule?
A: The GI50 was 1.1 nM.

Q: What about the GI50 (HL-60-TB) of the same molecule?
A: The GI50 was 0.912 nM.

Q: What about the GI50 (HT29) of the same molecule?
A: Its GI50 is 2.88 nM.

Q: And the GI50 (HCT-15)?
A: Its GI50 is 3.63 nM.

Q: What about the GI50 (KM12) of the same molecule?
A: The GI50 was 5.01 nM.

Q: And the GI50 (SF-295)?
A: Its GI50 is 1.1 nM.

Q: And the GI50 (HOP-62)?
A: Its GI50 is 4.17 nM.

Q: What about the GI50 (SNB-19) of the same molecule?
A: Its GI50 is 339 nM.

Q: And the GI50 (DU-145)?
A: Its GI50 is 5.5 nM.

Q: What about the GI50 (HCC-2998) of the same molecule?
A: The GI50 was 182 nM.

Q: And the GI50 (CCRF-CEM)?
A: The GI50 was 12.9 nM.

— patent US7381744B1, “Method of treating osteoporosis comprising vacuolar-type (H+)-ATPase-inhibiting compounds” (The United States of America as represented by the …, priority 1999, dated 2008)
